Source: ChEMBL document CHEMBL1201862, “PubChem BioAssay data set” (2004)
Activity calls are given as the source filed them.

Key:
[1] = target: T1, Caspase-3 (Homo sapiens, UniProt P42574); test: Dose-response confirmation of uHTS inhibitor hits of Sentrin-Specific Protease 8 in a Caspase-3 Fluorescence assay.; format: functional
T1 sequence (P42574 whole entry): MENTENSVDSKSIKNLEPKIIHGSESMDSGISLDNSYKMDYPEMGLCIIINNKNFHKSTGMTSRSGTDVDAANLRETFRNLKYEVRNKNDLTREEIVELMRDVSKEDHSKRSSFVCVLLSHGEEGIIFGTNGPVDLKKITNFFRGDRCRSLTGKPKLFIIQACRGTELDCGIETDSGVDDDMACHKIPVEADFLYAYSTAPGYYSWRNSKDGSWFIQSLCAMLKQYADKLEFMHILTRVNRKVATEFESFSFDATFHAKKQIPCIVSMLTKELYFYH

[2] = target: T2, Sentrin-specific protease 8 (Homo sapiens, UniProt Q96LD8); format: functional
T2 sequence (Q96LD8 whole entry): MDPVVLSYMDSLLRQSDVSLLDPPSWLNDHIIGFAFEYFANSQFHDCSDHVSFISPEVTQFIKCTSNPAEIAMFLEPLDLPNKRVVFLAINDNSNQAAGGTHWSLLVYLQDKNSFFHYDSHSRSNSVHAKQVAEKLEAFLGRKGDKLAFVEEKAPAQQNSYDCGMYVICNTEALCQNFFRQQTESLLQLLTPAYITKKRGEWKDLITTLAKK

[3] = target: T2, Sentrin-specific protease 8; format: functional; remark: listed apart in the source
[4] = target: T3, Caspase-6 (Homo sapiens, UniProt P55212); test: human caspase-6 inhibitors, dose response, biochemical, VEID-R110 fluorescence, cherry-pick (AID 720632)
T3 sequence (P55212 whole entry): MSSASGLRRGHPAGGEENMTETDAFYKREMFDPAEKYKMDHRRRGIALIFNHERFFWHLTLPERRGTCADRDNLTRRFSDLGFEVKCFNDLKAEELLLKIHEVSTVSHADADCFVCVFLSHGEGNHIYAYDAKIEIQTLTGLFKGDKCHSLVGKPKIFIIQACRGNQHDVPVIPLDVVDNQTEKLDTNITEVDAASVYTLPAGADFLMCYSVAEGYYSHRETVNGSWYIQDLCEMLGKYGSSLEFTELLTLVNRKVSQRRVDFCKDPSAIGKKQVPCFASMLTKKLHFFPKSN

[5] = tested on: Plasmodium falciparum; test: growth inhibition of P. falciparum 3D7, dose response, 3D7 strain, red blood cells, SYBR Green, cherry-picked (AID 652047); format: functional
[6] = target: 5-hydroxytryptamine receptor 2A (Mus musculus, UniProt P35363); format: functional, cell-based;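 also: CHO-K1 cells with tagged receptor and beta-arrestin; agonist potency measured as compound-induced activation of the receptor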
5-hydroxytryptamine receptor 2A, sequence (P35363 whole entry): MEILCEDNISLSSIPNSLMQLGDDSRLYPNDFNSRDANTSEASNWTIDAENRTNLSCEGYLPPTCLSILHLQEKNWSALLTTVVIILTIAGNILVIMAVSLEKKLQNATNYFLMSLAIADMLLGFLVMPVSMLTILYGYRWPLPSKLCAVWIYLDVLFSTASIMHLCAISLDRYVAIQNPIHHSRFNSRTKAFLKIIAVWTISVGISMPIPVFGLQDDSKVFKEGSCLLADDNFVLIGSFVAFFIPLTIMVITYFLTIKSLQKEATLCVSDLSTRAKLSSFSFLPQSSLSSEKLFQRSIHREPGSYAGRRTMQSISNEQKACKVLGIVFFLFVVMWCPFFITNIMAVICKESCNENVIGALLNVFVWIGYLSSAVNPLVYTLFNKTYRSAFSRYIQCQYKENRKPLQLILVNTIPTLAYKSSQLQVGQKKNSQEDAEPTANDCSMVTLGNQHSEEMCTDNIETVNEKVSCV

[7] = target: Mu-type opioid receptor (Homo sapiens, UniProt P35372); format: functional, cell-based;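 also: U2OS cells with beta-arrestin recruitment to OPRM1 by beta-gal complementation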
Mu-type opioid receptor, sequence (P35372 whole entry): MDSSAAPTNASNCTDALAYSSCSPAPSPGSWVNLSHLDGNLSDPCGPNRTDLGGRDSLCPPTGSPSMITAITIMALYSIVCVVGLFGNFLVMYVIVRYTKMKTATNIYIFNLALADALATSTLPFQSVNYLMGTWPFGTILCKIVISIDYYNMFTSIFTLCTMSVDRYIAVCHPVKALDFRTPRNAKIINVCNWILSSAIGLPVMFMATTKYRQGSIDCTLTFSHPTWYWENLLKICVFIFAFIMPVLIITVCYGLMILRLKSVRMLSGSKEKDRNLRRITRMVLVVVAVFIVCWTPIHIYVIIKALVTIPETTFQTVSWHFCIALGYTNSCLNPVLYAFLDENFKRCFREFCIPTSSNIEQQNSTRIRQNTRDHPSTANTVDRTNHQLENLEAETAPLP

[8] = cytotoxicity in OVCAR8 ovarian cancer cells, dose response, PAX8 project, cell-based, plate reader, dry powder samples (AID 743197); format: functional; conditions: OVCAR-8
[9] = lymphoblastoid cell cytotoxicity, dose response, cytotoxicity control, plate reader, dry powder, set 2 (AID 624367); format: functional
[10] = target: Paired box protein Pax-8 (Homo sapiens, UniProt Q06710); test: inhibitors of PAX8-driven TPO luciferase reporter, dose response, RMG-I cells, cherry-pick (AID 687027); format: functional, cell-based;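 also: luciferase reporter driven by Pax8 target thyroperoxidase promoter measured by SteadyGlo luminescence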
Paired box protein Pax-8, sequence (Q06710 whole entry): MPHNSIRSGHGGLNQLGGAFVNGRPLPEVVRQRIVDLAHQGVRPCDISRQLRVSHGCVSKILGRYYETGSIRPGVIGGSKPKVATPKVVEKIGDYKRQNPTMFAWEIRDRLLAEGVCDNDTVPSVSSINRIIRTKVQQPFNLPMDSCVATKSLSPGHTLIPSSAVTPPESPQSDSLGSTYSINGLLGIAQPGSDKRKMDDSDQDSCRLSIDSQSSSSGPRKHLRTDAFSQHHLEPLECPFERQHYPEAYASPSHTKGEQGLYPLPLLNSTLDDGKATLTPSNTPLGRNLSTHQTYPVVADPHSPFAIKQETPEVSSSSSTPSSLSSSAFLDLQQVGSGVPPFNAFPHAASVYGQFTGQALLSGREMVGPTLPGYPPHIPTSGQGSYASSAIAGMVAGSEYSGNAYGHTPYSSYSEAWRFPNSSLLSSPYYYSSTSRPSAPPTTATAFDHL

[11] = NIH:OVCAR-3 ovarian cancer cell cytotoxicity, dose response, PAX8 inhibitor project, plate reader, dry powder samples (AID 743044); format: functional, cell-based
[12] = IGROV1 ovarian cancer cell cytotoxicity, dose response, PAX8 inhibitor project, plate reader, dry powder samples (AID 743043); format: functional, cell-based; conditions: IGROV-1
[13] = inhibitors of CMV-promoter luciferase reporter, dose response, counter-screen for Pax8 inhibitor project, cell-based, HEK293, luminescence, dry powder (AID 743020); format: functional
[14] = target: Tyrosyl-DNA phosphodiesterase 2 (Homo sapiens, UniProt O95551); test: human TDP2 enzyme inhibitors, dose response, biochemical, epi absorbance, IC50 (AID 743297)
Tyrosyl-DNA phosphodiesterase 2, sequence (O95551 whole entry): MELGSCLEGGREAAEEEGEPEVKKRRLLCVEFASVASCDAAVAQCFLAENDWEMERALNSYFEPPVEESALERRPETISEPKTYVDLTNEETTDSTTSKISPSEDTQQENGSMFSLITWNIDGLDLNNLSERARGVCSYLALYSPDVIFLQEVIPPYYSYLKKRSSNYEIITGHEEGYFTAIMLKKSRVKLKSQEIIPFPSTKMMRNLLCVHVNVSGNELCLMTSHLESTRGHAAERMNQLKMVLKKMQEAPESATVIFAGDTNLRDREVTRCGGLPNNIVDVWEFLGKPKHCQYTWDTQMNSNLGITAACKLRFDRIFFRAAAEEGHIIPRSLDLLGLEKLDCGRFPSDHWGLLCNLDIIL

[15] = HepG2 cell cytotoxicity, dose response, cytotoxicity control, cherry-picks, set 5 (AID 1053118); format: functional, cell-based
[16] = target: Protein Wnt-3a (Mus musculus, UniProt P27467); test: SAR analysis of small molecule antagonists of Gli-SUFU in a Wnt3a luminescent reporter assay.; format: functional
Protein Wnt-3a, sequence (P27467 whole entry): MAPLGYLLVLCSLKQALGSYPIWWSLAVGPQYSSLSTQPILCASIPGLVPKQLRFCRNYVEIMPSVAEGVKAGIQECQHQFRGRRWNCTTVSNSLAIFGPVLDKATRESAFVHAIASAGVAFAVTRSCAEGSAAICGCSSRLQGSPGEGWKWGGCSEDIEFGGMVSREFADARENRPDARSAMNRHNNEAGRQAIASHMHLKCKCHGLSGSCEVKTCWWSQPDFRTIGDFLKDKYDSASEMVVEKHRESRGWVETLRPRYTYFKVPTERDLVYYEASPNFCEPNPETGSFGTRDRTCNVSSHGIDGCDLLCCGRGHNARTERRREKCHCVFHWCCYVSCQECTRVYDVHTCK

[17] = target: Protein disulfide-isomerase A6 (Homo sapiens, UniProt Q15084); test: Secondary Assay for Selectivity of PDI Inhibitors (against ERp5) Measured in Biochemical System Using Plate Reader - 2137-04_Inhibitor_Dose_DryPowder_Activity_Set3.
Protein disulfide-isomerase A6, sequence (Q15084 whole entry): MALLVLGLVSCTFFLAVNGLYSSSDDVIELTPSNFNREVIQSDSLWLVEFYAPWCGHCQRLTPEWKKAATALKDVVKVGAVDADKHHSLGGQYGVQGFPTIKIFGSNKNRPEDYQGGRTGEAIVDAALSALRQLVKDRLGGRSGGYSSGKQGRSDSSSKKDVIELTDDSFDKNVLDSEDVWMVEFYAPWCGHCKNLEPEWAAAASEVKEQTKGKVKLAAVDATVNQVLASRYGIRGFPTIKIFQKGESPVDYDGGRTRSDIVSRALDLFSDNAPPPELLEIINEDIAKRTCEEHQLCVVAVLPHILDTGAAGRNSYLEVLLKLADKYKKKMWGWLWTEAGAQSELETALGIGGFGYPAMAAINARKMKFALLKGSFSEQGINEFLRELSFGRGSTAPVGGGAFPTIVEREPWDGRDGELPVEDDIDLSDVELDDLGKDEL

[18] = target: T4, Nuclear receptor subfamily 0 group B member 1 (Homo sapiens, UniProt P51843); format: functional, cell-based;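 also: HEK293T cells transfected with SF-1 and DAX-1 plus StAR promoter luciferase reporter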
T4 sequence (P51843 whole entry): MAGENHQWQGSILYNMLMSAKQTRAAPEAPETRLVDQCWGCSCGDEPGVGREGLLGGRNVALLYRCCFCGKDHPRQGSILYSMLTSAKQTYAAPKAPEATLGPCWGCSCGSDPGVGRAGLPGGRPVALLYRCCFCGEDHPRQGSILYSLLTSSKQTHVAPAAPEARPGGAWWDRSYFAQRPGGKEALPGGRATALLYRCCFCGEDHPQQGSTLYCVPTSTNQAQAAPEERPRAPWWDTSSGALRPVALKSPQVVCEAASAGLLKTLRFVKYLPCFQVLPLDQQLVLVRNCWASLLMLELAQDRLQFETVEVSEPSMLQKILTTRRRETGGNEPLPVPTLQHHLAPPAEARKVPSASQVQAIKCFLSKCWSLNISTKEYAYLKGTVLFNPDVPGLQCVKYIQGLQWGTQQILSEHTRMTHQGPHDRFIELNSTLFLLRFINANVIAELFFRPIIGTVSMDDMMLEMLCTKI

[19] = tested on: SN12K1; test: cells; format: functional; conditions: Homo sapiens
[20] = tested on: P388/ADR; test: cells; format: functional; conditions: Mus musculus
[21] = cells; format: functional, cell-based
[22] = target: SWI/SNF-related matrix-associated actin-dependent regulator of chromatin subfamily A member 2 (Homo sapiens, UniProt P51531); test: Luminescence-based cell-based high throughput dose response assay to identify activators of the function of SWI/SNF related, matrix associated, actin dependent regulator of chromatin, subfamily a, member 2 (SMARCA2, BRM).; format: functional
SWI/SNF-related matrix-associated actin-dependent regulator of chromatin subfamily A member 2, sequence (P51531 whole entry): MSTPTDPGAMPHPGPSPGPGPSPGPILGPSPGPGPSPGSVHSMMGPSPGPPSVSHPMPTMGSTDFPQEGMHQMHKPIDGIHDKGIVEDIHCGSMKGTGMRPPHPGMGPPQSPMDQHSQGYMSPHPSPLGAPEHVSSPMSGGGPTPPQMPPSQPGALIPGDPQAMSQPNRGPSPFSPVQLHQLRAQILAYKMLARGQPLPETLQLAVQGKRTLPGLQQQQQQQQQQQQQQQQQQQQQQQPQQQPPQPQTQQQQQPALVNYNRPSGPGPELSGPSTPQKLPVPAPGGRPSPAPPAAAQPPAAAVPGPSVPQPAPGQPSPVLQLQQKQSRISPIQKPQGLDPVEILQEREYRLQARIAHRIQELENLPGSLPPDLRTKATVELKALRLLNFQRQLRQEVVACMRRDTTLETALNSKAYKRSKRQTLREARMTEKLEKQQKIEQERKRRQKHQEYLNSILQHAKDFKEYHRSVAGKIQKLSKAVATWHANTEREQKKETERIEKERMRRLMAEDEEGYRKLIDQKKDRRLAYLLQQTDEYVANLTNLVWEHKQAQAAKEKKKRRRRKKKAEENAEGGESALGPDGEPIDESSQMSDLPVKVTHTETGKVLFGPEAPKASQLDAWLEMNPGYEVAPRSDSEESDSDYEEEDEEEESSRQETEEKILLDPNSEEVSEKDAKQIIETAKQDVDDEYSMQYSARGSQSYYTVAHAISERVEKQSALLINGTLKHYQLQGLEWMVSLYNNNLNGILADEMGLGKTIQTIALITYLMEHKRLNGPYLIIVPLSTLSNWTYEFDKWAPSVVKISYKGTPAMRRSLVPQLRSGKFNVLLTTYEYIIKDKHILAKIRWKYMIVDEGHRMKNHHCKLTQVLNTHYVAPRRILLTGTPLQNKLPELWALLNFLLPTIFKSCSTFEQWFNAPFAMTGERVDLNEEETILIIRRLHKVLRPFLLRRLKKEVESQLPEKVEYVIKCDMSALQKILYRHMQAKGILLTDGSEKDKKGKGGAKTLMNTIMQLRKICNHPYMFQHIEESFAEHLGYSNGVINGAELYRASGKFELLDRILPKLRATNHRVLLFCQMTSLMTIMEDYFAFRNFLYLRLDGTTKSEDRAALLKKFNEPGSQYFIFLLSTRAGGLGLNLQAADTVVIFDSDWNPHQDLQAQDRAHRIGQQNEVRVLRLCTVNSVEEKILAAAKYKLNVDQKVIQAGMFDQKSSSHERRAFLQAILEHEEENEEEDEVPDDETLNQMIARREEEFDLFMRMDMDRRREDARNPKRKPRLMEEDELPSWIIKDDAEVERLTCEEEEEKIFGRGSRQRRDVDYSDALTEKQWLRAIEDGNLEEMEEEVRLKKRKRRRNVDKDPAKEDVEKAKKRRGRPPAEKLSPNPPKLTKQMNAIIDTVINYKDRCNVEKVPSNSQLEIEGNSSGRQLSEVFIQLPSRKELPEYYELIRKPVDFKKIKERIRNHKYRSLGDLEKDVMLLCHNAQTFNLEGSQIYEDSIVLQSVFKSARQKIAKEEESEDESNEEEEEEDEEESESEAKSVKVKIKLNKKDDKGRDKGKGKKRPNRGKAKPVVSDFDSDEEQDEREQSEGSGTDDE

[23] = Counterscreen for activators of the function of SWI/SNF related, matrix associated, actin dependent regulator of chromatin, subfamily a, member 2 (SMARCA2, BRM): Luminescence-based cell-based high throughput dose response assay to identify non-selective compounds using the VP16 reporter assay.; format: functional
[24] = tested on: P388; test: cells; format: functional; conditions: Mus musculus
[25] = target: Beta-lactamase (Pseudomonas aeruginosa, UniProt Q79MP6);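 also: biochemical dose-response test of metallo-beta-lactamase enzyme inhibition, read out by epi-absorbance; purified recombinant IMP-1 metallo-beta-lactamase with nitrocefin as substrate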
Beta-lactamase (Pseudomonas aeruginosa, UniProt Q79MP6), sequence (Q79MP6 whole entry): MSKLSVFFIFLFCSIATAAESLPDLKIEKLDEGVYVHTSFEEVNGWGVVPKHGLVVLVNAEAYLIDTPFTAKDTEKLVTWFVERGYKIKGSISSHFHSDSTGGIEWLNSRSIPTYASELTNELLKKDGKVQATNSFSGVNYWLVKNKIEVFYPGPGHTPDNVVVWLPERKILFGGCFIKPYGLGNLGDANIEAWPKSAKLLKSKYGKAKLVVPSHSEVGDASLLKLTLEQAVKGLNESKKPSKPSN

[26] = target: T5, ORF 73 (Human herpesvirus 8, UniProt O40947); test: inhibitors of C-LANA binding to LBS DNA, dose response, biochemical, fluorescence polarization, cherry-picked samples (AID 504725); design: species or system Human gammaherpesvirus 8;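 also: fluorescence polarization of a labeled DNA duplex reporting LANA DNA binding; potency is for inhibitors that block LANA binding to the DNA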
T5 sequence (O40947 whole entry): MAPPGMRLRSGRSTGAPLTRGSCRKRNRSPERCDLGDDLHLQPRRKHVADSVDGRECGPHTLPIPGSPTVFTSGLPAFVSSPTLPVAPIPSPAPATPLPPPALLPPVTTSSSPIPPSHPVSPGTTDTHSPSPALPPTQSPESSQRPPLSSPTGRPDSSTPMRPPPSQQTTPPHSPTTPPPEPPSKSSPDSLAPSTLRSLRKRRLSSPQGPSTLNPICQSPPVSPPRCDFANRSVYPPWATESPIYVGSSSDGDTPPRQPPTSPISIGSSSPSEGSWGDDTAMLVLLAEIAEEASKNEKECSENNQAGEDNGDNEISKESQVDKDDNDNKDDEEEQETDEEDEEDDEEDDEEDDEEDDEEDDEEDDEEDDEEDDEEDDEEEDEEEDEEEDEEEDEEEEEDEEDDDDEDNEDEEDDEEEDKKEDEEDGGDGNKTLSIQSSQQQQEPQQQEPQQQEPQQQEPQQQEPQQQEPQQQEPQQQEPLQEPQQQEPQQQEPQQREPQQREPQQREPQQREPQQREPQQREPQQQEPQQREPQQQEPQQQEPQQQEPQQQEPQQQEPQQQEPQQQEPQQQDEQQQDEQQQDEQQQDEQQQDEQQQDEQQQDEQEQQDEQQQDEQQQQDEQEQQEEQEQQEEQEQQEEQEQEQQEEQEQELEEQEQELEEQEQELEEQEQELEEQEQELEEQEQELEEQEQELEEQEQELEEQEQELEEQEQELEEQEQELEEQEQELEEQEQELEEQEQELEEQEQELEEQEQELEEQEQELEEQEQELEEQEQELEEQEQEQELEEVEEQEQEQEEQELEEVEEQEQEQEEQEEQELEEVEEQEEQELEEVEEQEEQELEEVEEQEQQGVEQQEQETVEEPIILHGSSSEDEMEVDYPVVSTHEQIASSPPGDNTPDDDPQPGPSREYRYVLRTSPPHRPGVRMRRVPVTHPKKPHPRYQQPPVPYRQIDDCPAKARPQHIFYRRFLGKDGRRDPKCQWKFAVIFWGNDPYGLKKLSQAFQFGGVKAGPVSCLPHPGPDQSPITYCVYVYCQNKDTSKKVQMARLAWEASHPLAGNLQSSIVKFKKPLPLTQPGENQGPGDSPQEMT

[27] = target: T6, Insulin-degrading enzyme (Homo sapiens, UniProt P14735); test: activators of recombinant IDE enzyme, dose response, counter-screen for IDE activator project, biochemical, fluorescence polarization (AID 588681)
T6 sequence (P14735 whole entry): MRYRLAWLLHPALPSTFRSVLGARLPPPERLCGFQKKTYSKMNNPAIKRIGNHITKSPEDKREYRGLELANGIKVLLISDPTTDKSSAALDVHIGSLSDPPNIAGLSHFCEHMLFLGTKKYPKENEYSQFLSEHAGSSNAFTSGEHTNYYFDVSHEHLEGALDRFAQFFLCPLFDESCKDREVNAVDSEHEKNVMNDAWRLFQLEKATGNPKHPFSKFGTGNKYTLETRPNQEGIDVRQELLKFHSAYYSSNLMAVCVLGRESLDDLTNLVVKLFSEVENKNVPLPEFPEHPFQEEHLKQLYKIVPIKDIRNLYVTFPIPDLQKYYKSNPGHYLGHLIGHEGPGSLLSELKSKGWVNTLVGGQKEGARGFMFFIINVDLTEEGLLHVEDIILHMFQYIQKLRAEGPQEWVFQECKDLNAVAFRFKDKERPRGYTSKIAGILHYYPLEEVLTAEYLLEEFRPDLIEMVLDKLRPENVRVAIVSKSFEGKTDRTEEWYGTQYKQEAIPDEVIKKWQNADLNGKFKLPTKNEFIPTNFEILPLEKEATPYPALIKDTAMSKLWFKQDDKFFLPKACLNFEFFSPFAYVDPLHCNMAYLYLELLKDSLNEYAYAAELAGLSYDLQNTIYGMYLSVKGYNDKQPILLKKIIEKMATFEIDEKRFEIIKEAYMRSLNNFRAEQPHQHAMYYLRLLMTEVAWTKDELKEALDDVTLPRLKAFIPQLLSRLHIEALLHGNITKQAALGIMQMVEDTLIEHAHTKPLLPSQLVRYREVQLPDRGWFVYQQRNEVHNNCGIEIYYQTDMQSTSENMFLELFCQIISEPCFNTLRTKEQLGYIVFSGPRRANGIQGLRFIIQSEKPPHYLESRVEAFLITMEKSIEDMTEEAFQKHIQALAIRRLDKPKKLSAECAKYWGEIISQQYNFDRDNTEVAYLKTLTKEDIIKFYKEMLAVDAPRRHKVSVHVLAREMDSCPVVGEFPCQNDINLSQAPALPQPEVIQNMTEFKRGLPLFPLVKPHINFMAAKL

[28] = target: T6, Insulin-degrading enzyme; test: activators of endogenous IDE in HEK cells, dose response, cell-based, fluorescence polarization (AID 588439); format: functional
[29] = tested on: HEK293; test: HEK cell cytotoxicity by LDH release, dose response, cytotoxicity control for IDE activator project, fluorescence, HEK cells (AID 588440); format: functional, cell-based; conditions: Homo sapiens;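 also: cytotoxicity by LDH release measuring loss of membrane integrity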
[30] = target: Beta-lactamase (Salmonella choleraesuis (strain SC-B67), UniProt Q5J463)
Beta-lactamase (Salmonella choleraesuis (strain SC-B67), UniProt Q5J463), sequence (Q5J463 whole entry): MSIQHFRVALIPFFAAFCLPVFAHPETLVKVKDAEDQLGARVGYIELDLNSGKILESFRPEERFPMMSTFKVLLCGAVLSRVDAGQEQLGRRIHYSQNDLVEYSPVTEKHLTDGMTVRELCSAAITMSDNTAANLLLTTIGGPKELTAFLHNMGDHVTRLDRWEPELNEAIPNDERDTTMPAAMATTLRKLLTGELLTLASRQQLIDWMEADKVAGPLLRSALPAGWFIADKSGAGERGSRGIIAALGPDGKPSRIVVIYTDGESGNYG

[31] = tested on: HEK293; test: optical interference in Abeta FP readout, dose response, artefact control for IDE activator project, biochemical, fluorescence polarization (AID 588442); format: functional, cell-based; conditions: Homo sapiens

CCOCCOc1cc(NCc2ccccc2)c2ncn(C(C)C)c2c1
IC50 [1]: 45.5 µM (active)
IC50 [2]: 8.07 µM (active)
IC50 [3]: 9.3 µM (active)
AC50 [4]: 9.77 µM (active)

CCCc1cc(C(N)=O)c(NC(=O)c2cc(C)on2)s1
AbsAC35 [5]: 70.04 µM

CCOC(=O)C1(Cc2ccc(Cl)cc2)CCN(C(C)CCn2cccn2)CC1 (stereo not drawn)
EC50 [6]: 52.2 µM (inactive)
EC50 [7]: 92.5 µM (inactive)

Cc1noc(C)c1S(=O)(=O)Nc1ccc2c(c1)C(=O)N([C@H](C)CO)C[C@@H](C)[C@@H](CN(C)Cc1ccc(C(F)(F)F)cc1)OCCCC[C@H](C)O2
AC50 [8]: 46.4 µM (active)
AbsAC35 [9]: 47.16 µM
AC50 [10]: 8.19 µM (active)
AC50 [11]: 28 µM (active)
AC50 [12]: 47.1 µM (active)

C[C@@H]1CN([C@H](C)CO)C(=O)c2cc(NC(=O)Nc3ccc(F)cc3)ccc2O[C@@H](C)CCCCO[C@H]1CN(C)Cc1ccc(C(F)(F)F)cc1
AC50 [10]: 4.13 µM (active)
AC50 [11]: 15.8 µM (active)
AC50 [13]: 37.9 µM (active)

COc1ccc(-n2[nH]c(C)cc2=O)cc1
IC50 [14]: > 128 µM (inactive)

COCC(=O)Nc1ccc2c(c1)C(=O)N(C)[C@@H]1CC[C@H](CC(=O)NCc3ccccc3Cl)O[C@H]1CO2
AC50 [15]: > 52 µM (inactive)

CCCCN(C)c1cc(NC(=O)c2ccccc2)ncn1
IC50 [16]: > 21.8 µM (inactive)

C/C1=C\[C@@H](O)C(C)(C)CCCC2(C)OC2C[C@@H]1OC(=O)c1ccc(O)cc1 (stereo partly drawn)
AC50 [17]: 5 µM (active)

Nc1ccc(S(=O)(=O)Nc2cnc3c(Cl)cccc3n2)cc1 [CHLORSULFAQUINOXALINE]
IC50 [18]: > 67.5 µM (inactive)
GI50 [19]: 117 µM (inactive)
GI50 [20]: 128 µM (inactive)
IC50 [21]: > 67.5 µM (inactive)
EC50 [22]: > 91.2 µM (inactive)
EC50 [23]: > 91.2 µM (inactive)
GI50 [24]: 87.1 µM (inactive)

CC(=O)Oc1ccc2c(c1)Oc1cc(OC(C)=O)ccc1C21OC(=O)c2ccccc21 [FLUORESCEIN DIACETATE]
IC50 [25]: > 59.6 µM (inactive)
AC50 [26]: 0.042 µM (active)
EC50 [27]: > 54.7 µM (inactive)
EC50 [28]: > 54.7 µM (inactive)
IC50 [29]: > 89.2 µM (inactive)
IC50 [30]: > 59.6 µM (inactive)
EC50 [31]: > 54.7 µM (inactive)
